pIC50: −log10 of the molar value.
Experiments:
[1] = target: T1, WRN enzyme (Homo sapiens, UniProt Q14191); experiment: WRN helicase hydrolysis (unwinding) of double-stranded DNA, fluorescence assay; format: biochemical; settings: 30 min pre-incubation, 60 min reaction
T1 construct: 10 μL (2×) of WRN enzyme solution was added
Experimental: • The molecules of the present disclosure were tested for their activities on the WRN helicase hydrolysis of double-stranded DNA (Table 1).
A working solution to be tested and a buffer were prepared. The compound to be tested was dissolved in DMSO and subjected to 4× dilution (with 10 μM final concentration as the starting concentration). 0.2 μL of the solution of the compound to be tested was added to the 384-well plate and 10 μL (2×) of WRN enzyme solution was added. The solution was incubated in the dark for 30 minutes. Then, 10 μL of a substrate detection solution containing double-stranded DNA was added to initiate the reaction (the DNA has a length of 19 bp, and labeled with TAMRA and BHQ2 at 3′ and 5′-ends, respectively). The solution was incubated at room temperature for 60 minutes. The inhibitory activities (IC50) against WRN enzyme were calculated based on the change of Ex530/Em590 in the blank group (DMSO) and the compound group.

[2] = tested on: SW48 colorectal cancer cells; experiment: 2D antiproliferation on MSI-H SW48 cells, CTG, 5 days; format: cell-based; settings: Homo sapiens, 120 h; SW48 MSI-H, 5 days
Experimental: The molecules of the present disclosure were tested for their anti-proliferative activity on MSI-H tumor cells.
SW48 colorectal cancer cells with MSI were cultured in a RMI1640 medium containing 10% FBS and 1% penicillin-streptomycin, and the mixture was cultured in a 37° C., 5% CO2 incubator. 40 μL of cell suspension was added to each well of a 384-well microplate. […] of compounds with different concentrations were added to each well using Echo, and the mixtures were cultured in a 37° C., 5% CO2 incubator for 5 days. 40 μL of CTG solution (Promega, Cat No. G7573) was added to each well and incubated in a 37° C., 5% CO2 incubator in the dark for 30 minutes. The luminescence value was read using an Envision multi-function microplate reader (Perkin Elmer, catalog number Envision 2104). The optical signal is proportional to the amount of ATP in the system, while the ATP content directly characterizes the number of viable cells in the system.

[3] = tested on: HT-29 colorectal cancer cells; experiment: 2D antiproliferation on MSS HT-29 cells, CTG, 5 days; format: cell-based; settings: Homo sapiens, 120 h, HT-29 MSS
Experimental: The molecules of the invention were tested for their anti-proliferative activities on MSS tumor cells.
HT-29 colorectal cancer cells with MSS were cultured in a McCoy's 5A medium containing 10% FBS and 1% penicillin-streptomycin in a 37° C., 5% CO2 constant temperature incubator. 40 μL of cell suspension was added to each well of a 384-well microplate. […] of compounds with different concentrations were added to each well using Echo. The mixtures were cultured in a 37° C., 5% CO2 constant temperature incubator for 5 days. 40 μL of CTG solution (Promega, Cat No. G7573) was added to each well, and the mixture was incubated in a 37° C., 5% CO2 constant temperature incubator for 30 minutes in the dark. The luminescence value was read using an Envision multi-function microplate reader (Perkin Elmer, catalog number Envision 2104). The optical signal is proportional to the amount of ATP in the system, while the ATP content directly characterizes the number of viable cells in the system.

T1 sequence (Q14191 whole entry): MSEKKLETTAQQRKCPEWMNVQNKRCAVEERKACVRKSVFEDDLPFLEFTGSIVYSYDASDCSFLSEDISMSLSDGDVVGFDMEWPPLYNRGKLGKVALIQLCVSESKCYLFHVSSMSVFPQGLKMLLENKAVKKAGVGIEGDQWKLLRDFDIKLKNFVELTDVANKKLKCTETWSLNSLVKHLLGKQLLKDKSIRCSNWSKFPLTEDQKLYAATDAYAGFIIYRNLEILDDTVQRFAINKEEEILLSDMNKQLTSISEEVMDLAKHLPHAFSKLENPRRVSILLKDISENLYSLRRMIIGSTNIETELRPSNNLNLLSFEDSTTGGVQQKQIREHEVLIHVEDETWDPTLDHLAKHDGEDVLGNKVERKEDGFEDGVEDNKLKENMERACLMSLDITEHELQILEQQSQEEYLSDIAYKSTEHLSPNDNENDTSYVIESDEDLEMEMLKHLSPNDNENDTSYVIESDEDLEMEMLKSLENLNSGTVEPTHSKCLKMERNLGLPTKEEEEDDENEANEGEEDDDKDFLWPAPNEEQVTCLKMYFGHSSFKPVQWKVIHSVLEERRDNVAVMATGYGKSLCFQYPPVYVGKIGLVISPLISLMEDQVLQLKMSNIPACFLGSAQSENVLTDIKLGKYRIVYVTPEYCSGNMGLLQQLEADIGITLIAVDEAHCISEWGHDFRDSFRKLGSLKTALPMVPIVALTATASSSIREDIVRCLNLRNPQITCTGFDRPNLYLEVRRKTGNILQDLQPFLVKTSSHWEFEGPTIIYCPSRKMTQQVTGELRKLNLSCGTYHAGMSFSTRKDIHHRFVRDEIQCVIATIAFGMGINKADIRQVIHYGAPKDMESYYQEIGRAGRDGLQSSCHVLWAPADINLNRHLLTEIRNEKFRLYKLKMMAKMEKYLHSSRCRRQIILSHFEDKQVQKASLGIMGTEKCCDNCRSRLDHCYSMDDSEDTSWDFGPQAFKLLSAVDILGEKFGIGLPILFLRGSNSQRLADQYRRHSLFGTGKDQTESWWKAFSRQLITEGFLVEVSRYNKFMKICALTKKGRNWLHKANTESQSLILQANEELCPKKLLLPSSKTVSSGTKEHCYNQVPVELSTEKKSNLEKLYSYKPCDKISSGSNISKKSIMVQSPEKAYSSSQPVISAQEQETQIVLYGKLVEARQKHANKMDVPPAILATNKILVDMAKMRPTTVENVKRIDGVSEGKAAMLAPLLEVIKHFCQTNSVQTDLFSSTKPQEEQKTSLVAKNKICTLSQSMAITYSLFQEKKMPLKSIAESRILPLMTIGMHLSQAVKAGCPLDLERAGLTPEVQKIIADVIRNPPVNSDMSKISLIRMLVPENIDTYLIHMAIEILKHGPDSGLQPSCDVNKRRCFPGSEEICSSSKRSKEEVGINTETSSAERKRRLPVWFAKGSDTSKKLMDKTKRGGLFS

Row | Compound | pIC50 [1] | pIC50 [2] | pIC50 [3]
1 | CCc1c(N2CC[C@@H](NC(=O)c3ncnc(C)c3O)C2)c(=O)n2nc(C3=CCOCC3)nc2n1CC(=O)Nc1ccc(C(F)(F)F)cc1Cl [P2] | 8.64 | 5.96 | –
2 | CCc1c(N2CCN(C(=O)c3ncccc3O)CC2)c(=O)n2nc(-c3cncs3)nc2n1CC(=O)Nc1ccc(C(F)(F)F)cc1Cl [P5] | 8.80 | – | < 5.00
3 | CCc1c(N2CCN(C(=O)c3ncccc3O)CC2)c(=O)n2nc(-c3sccc3N)nc2n1CC(=O)Nc1ccc(C(F)(F)F)cc1Cl [P8] | 8.43 | 6.25 | –
4 | CCc1c(N2CCN(C(=O)c3ncccc3O)CC2)c(=O)n2nc(-c3cnc(C(C)=O)s3)nc2n1CC(=O)Nc1ccc(C(F)(F)F)cc1Cl [P12] | 8.03 | 6.35 | < 5.00
5 | CCc1c(N2CCN(C(=O)c3ncccc3O)CC2)c(=O)n2nc(-c3ccc(C(C)=O)s3)nc2n1CC(=O)Nc1ccc(C(F)(F)F)cc1Cl [P15] | 8.80 | 6.42 | < 5.00
6 | CCc1c(N2CCN(C(=O)c3ncccc3O)CC2)c(=O)n2nc(-c3cc4ccncc4s3)nc2n1CC(=O)Nc1ccc(C(F)(F)F)cc1Cl [P17] | 8.64 | 6.44 | < 5.00
7 | CCc1c(N2CCN(C(=O)c3ncccc3O)CC2)c(=O)n2nc(-c3cc4cnccc4s3)nc2n1CC(=O)Nc1ccc(C(F)(F)F)cc1Cl [P18] | 8.74 | 6.30 | 5.31
8 | CCc1c(N2CCN(C(=O)c3ncccc3O)CC2)c(=O)n2nc(-c3ccc4c(c3)OCO4)nc2n1CC(=O)Nc1ccc(C(F)(F)F)cc1Cl [P21] | 8.48 | 6.32 | < 5.00
9 | CCc1c(N2CCN(C(=O)c3ncnc(C)c3O)CC2)c(=O)n2nc(-c3ccc4nccn4c3)nc2n1CC(=O)Nc1ccc(C(F)(F)F)cc1C [P47] | – | 6.32 | < 5.00
10 | CCc1c(N2CCN(C(=O)c3ncnc(C)c3O)CC2)c(=O)n2nc(-c3cc4cn[nH]c4s3)nc2n1CC(=O)Nc1ccc(C(F)(F)F)cc1C [P50] | – | 6.79 | < 5.00

More lines, now with the values ahead:

Row | pIC50 [1] | pIC50 [2] | pIC50 [3] | Compound
11 | 8.68 | 6.90 | < 5.00 | CCc1c(N2CCN(C(=O)c3ncccc3O)CC2)c(=O)n2nc(-c3ccc(COC)s3)nc2n1CC(=O)Nc1ccc(C(F)(F)F)cc1Cl [P10]
12 | 8.77 | 6.90 | < 5.00 | CCc1c(N2CCN(C(=O)c3ncccc3O)CC2)c(=O)n2nc(-c3cnc(CO)s3)nc2n1CC(=O)Nc1ccc(C(F)(F)F)cc1Cl [P11]
13 | 8.66 | 7.14 | 5.04 | CCc1c(N2CCN(C(=O)c3ncccc3O)CC2)c(=O)n2nc(-c3cc4cn[nH]c4s3)nc2n1CC(=O)Nc1ccc(C(F)(F)F)cc1Cl [P13]
14 | 8.36 | 7.01 | < 5.00 | CCc1c(N2CCN(C(=O)c3ncccc3O)CC2)c(=O)n2nc(-c3[nH]nc4sccc34)nc2n1CC(=O)Nc1ccc(C(F)(F)F)cc1Cl [P14]
15 | 8.68 | 6.92 | < 5.00 | CCc1c(N2CCN(C(=O)c3ncccc3O)CC2)c(=O)n2nc(-c3cc4cnn(C)c4s3)nc2n1CC(=O)Nc1ccc(C(F)(F)F)cc1Cl [P16]
16 | 8.80 | 6.90 | < 5.00 | CCc1c(N2CCN(C(=O)c3ncccc3O)CC2)c(=O)n2nc(-c3cc4c(s3)COC4)nc2n1CC(=O)Nc1ccc(C(F)(F)F)cc1Cl [P20]
17 | 8.77 | 7.41 | < 5.00 | CCc1c(N2CCN(C(=O)c3ncnc(C)c3O)CC2)c(=O)n2nc(-c3cc4c(s3)COC4)nc2n1CC(=O)Nc1ccc(Br)cc1C [P25]
18 | 8.82 | 6.90 | < 5.00 | CCc1c(N2CCN(C(=O)c3ncnc(C)c3O)CC2)c(=O)n2nc(-c3cc4c(s3)COC4)nc2n1CC(=O)Nc1ccc(C(F)(F)F)cc1F [P32]
19 | 8.74 | 6.86 | < 5.00 | CCc1c(N2CCN(C(=O)c3ncccc3O)CC2)c(=O)n2nc(-c3cnc(COC)s3)nc2n1CC(=O)Nc1ccc(C(F)(F)F)cc1Cl [P33]
20 | – | 7.26 | < 5.00 | CCc1c(N2CCN(C(=O)c3ncnc(C)c3O)[C@H](C)C2)c(=O)n2nc(-c3cc4c(s3)COC4)nc2n1CC(=O)Nc1ccc(C(F)(F)F)cc1C [P53]
21 | 8.54 | 6.91 | < 5.00 | CCc1c(N2CCN(C(=O)c3ncccc3O)CC2)c(=O)n2nc(-c3cc4c(s3)COC4)nc2n1CC(=O)Nc1ccc(C(F)(F)F)c2ccsc12 [P58]

Reference: US20260217732A1, “WRN INHIBITOR” (SUZHOU PUHE BIOPHARMA CO., LTD., priority 2022, published 2026)
